From patent US20210395327A1, “Growth Hormone-Releasing Hormone Antagonists and Uses Thereof” (United States Government As Represented By The Department …, priority 2019, published 2021)
Non-standard residues stand in square brackets, D forms with d. Residues, ends and D or L forms follow the SMILES beside them. *: point of attachment. Phe(4-Cl) = N[C@@H](Cc1ccc(Cl)cc1)C(=O)O; hArg = N=C(N)NCCCC[C@H](N)C(=O)O; 12Ado = NCCCCCCCCCCCC(=O)O; Nle = CCCC[C@H](N)C(=O)O; Orn = NCCC[C@H](N)C(=O)O; Abu = CC[C@H](N)C(=O)O; PhAc = O=C(Cc1ccccc1)*

Columns and labels:
[1] = test system: J82 urothelial cancer cells; assay: In vitro cell viability, J82; type: cell-based, human; conditions: antagonist 5 μM for 72 h, cell proliferation assay; MIA602 = 1
Method: (§1) The inhibitory effects of the various synthesized GHRH antagonists were tested in cell proliferation assays in various human cancer cell lines including stomach cancer (KATOIII, N87), colon cancer (HT-29), urothelial cancer (J82, RT4), pancreatic cancer (PANC-1, CFPAC-1), prostatic cancer (PC3), breast cancer (MX-1, HCC1806), ovarian cancer (SK-OV-3, OVCAR-3) and lung cancer (HCC827, H460).
(§2) Cell culture. Human cancer cell lines including pancreatic (PANC-1 and CFPAC-1), lung (HCC827 and H460), stomach (NCI-N87 and KATOIII), urothelial (J82, RT4), prostatic (PC3), breast (MX-1 and HCC 1806), colorectal (HT-29), and ovarian (SK-OV-3 and OVCAR-3) were obtained from the American Type Culture Collection (ATCC) and cultured at 37° C. in a humidified 95% air/5% CO2 atmosphere in the medium recommended by ATCC.
(§3) In vitro cell viability. Cell viability was analyzed as follows: cancer cells including pancreatic (PANC-1 and CFPAC-1), lung (HCC827 and H460), stomach (NCI-N87 and KATOIII), urothelial (J82, RT4), prostatic (PC3) and breast (MX-1 and HCC 1806), colorectal (HT-29) and ovarian (SK-OV-3 and OVCAR-3) were grown on 96 well plates to ˜60% confluence, the cells were starved for 24 h in culture medium containing 0.5% FBS. Cells were then treated with GHRH antagonists MIA602 AVR compounds at concentrations of 1, 2.5 or 5 μM, or vehicle (0.1% DMSO) in quintuplicates for 72 hours. The medium was replaced every 48 hours. Cell viability was measured using CellTiter 96 aqueous one solution kit (Promega). Inhibitory effects of tested AVR compounds in comparison to that of MIA602 are presented as inhibitory potency.
(§4) Inhibitory effects of selected AVR compounds in comparison to that of MIA602 are presented as inhibitory potency (e.g., percentage of inhibition). […] The cell lines tested including lung cancer HCC827 (FIG. 2A), pancreatic cancer CFPAC-1 (FIG. 2B), stomach cancer N87 (FIG. 2C), colon cancer HT-29 (FIG. 2D), breast cancers MX-1 and HCC1806 (FIGS. 2 E, F). Based on the results of cell proliferation assay after cancer cells were treated with antagonist at concentration of 5 μM for 72H, the relative inhibitory potency of AVR antagonists in comparison to MIA-602 is summarized in Table 3 A and B. Over 60 AVR compounds were tested in 12 cancer cell lines.

[2] = test system: NCI-N87 stomach cancer cells; assay: In vitro cell viability (CellTiter 96), N87; type: cell-based, human; conditions: antagonist 5 μM for 72 h, cell proliferation assay; MIA602 = 1
Method: as §1, §2, §3, §4
(§5) Based on the results of cell proliferation assay after cancer cells were treated with antagonist at concentration of 5 µM for 72H, * at concentration of 2 µM for 72 H.

MX-1 breast cancer cells = assay: In vitro cell viability, MX-1; type: cell-based, human; conditions: antagonist 5 μM for 72 h, cell proliferation assay; MIA602 = 1
Method: as §1, §2, §3, §4, §5

[3] = test system: PC3 prostatic cancer cells; assay: In vitro cell viability, PC3; type: cell-based, human; conditions: antagonist 5 μM for 72 h, cell proliferation assay; MIA602 = 1
Method: as §1, §2, §3
(§6) Inhibitory effects of selected AVR compounds in comparison to that of MIA602 are presented as inhibitory potency (e.g., percentage of inhibition). […] The cell lines tested including lung cancer HCC827 (FIG. 2A), pancreatic cancer CFPAC-1 (FIG. 2B), stomach cancer N87 (FIG. 2C), colon cancer HT-29 (FIG. 2D), breast cancers MX-1 and HCC1806 (FIGS. 2 E, F). […]

[4] = test system: PANC-1 pancreatic cancer cells; assay: In vitro cell viability, PANC-1; type: cell-based, human; conditions: antagonist 5 μM for 72 h, cell proliferation assay; MIA602 = 1
Method: as §1, §2, §3, §4

[5] = test system: HCC1806 breast cancer cells; assay: In vitro cell viability, HCC1806; type: cell-based, human; conditions: antagonist 5 μM for 72 h, cell proliferation assay; MIA602 = 1
Method: as §1, §2, §3, §4, §5

HCC827 lung cancer cells = assay: In vitro cell viability, HCC827; type: cell-based, human; conditions: antagonist 5 μM for 72 h, cell proliferation assay; MIA602 = 1
In short: (§7)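 Potency is reported as percent inhibition of viability compared with the reference antagonist MIA602, measured with CellTiter 96 aqueous one solution reagent. Serum-starved cells (0.5% FBS, 24 h) were treated for 72 h, mostly at 5 μM, otherwise 2 μM.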

[6] = test system: KATOIII stomach cancer cells; assay: In vitro cell viability, KATOIII; type: cell-based, human; conditions: antagonist 5 μM for 72 h, cell proliferation assay; MIA602 = 1
In short: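 Cells grown to ~60% confluence, serum-starved 24 h in 0.5% FBS, then treated with antagonists at 1, 2.5 or 5 μM or vehicle (0.1% DMSO) in quintuplicate for 72 h, medium replaced every 48 h. Viability read by MTS-type CellTiter 96 AQueous One assay; expressed as inhibitory potency relative to MIA602.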

[7] = test system: CFPAC-1 pancreatic cancer cells; assay: In vitro cell viability, CFPAC-1; type: cell-based, human; conditions: antagonist 5 μM for 72 h, cell proliferation assay; MIA602 = 1
In short: as §7

[8] = target: T1, membrane GHRH-receptors on human anterior pituitary cells (Homo sapiens, UniProt Q02643); assay: Receptor binding, displacement of 125I-[His1,Nle27]-hGH-RH(1-32)NH2 on human pituitary membranes
T1 construct: Human pituitary was purchased from the National Hormone and Peptide Program; tissue National Hormone and Peptide Program; host or cells: human pituitary (membrane fractions)
T1 sequence (Q02643 23-423): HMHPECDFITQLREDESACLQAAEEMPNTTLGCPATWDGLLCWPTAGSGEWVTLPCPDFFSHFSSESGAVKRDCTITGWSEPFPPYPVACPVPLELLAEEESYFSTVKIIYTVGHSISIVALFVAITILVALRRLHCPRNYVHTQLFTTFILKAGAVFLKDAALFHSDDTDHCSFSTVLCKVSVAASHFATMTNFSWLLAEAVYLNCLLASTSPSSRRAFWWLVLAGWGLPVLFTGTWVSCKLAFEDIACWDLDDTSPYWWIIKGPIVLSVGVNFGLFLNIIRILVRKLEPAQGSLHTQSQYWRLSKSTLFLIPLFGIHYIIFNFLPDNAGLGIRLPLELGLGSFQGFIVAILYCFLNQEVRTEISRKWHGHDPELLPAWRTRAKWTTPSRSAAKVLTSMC
In short: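 Membrane fractions from human pituitary; peptides displace 125I-[His1,Nle27]-hGH-RH(1-32)NH2. IC50 is the dose giving 50% inhibition of specific binding, from duplicate tubes. Relative affinity is the ratio of test IC50 to hGH-RH(1-29)NH2 IC50.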

[9] = test system: RT4 urothelial cancer cells; assay: In vitro cell viability, RT4; type: cell-based, human; conditions: antagonist 5 μM for 72 h, cell proliferation assay; MIA602 = 1
Method: as §1, §2, §3, §6

`CCCC[C@H](NC(=O)[C@@H](NC(=O)[C@H](CC(=O)O)NC(=O)[C@H](CCC(N)=O)NC(=O)[C@H](CC(C)C)NC(=O)[C@H](CC(C)C)NC(=O)[C@H](CCCN)NC(=O)[C@H](Cc1c[nH]cn1)NC(=O)[C@H](C)NC(=O)[C@H](CO)NC(=O)[C@H](CC(C)C)NC(=O)[C@H](CCC(N)=O)NC(=O)[C@H](CC)NC(=O)[C@H](CC(C)C)NC(=O)[C@@H](NC(=O)[C@H](CCCCN)NC(=O)[C@H](CCCNC(=N)N)NC(=O)[C@H](Cc1ccc(OC)cc1)NC(=O)[C@H](CCCNC(=N)N)NC(=O)[C@H](C)NC(=O)[C@@H](NC(=O)[C@H](Cc1ccc(Cl)cc1)NC(=O)[C@@H](NC(=O)[C@H](C)NC(=O)[C@H](CC(=O)O)NC(=O)[C@@H](CCCNC(=N)N)NC(=O)[C@H](Cc1ccc(O)cc1)NC(=O)CCCCCCCCCCCNC(=O)Cc1ccccc1)[C@@H](C)CC)[C@@H](C)O)C(C)C)[C@@H](C)CC)C(=O)N[C@H](CCCNC(=N)N)C(=O)N[C@@H](CCCCNC(=N)N)C(N)=O` [AVR-104, PhAC-Ada-Tyr-DArg-Asp-Ala-Ile-Cpa-Thr-Ala-Arg-Tyr(Me)-Arg-Lys-Val-Leu-Abu-Gln-Leu-Ser-Ala-His-Orn-Leu-Leu-Gln-Asp-Ile-Nle-DArg-Har-NH2] ({PhAc-12Ado}-Y[dR]DAI[Phe(4-Cl)]TARY(Me)RKVL[Abu]QLSAH[Orn]LLQDI[Nle][dR][hArg]-NH2) was tested, and the “relative inhibitory potency in comparison to MIA-602, Urothelial J82” value [1] was 3.377, the “relative inhibitory potency in comparison to MIA-602, Stomach N87” value [2] was 2.291 and the “relative inhibitory potency in comparison to MIA-602, Breast MX-1” value (MX-1 breast cancer cells) was 1.310. For the same compound, the “relative inhibitory potency in comparison to MIA-602, Prostatic PC3” value [3] was 1.440, the “relative inhibitory potency in comparison to MIA-602, Pancreatic Panc-1” value [4] was 1.114 and the “relative inhibitory potency in comparison to MIA-602, Breast IICC1806” value [5] was 1.220. The “relative inhibitory potency in comparison to MIA-602, Lung IICC827” value (HCC827 lung cancer cells) was 1.525, the “relative inhibitory potency in comparison to MIA-602, Stomach KATOIII” value [6] was 1.321 and the “relative inhibitory potency in comparison to MIA-602, Pancreatic CFPAC-1” value [7] was 1.502. The IC50 [8] was 0.59 nM and the “relative inhibitory potency in comparison to MIA-602, Urothelial RT4” value [9] was 1.697.
